Laboratory results as given in patent publication US8394426B2, “Composition comprising an extract of hardy kiwi for preventing or treating baldness disorders or seborrheic skin disorders” (Viromed Co., Ltd., priority 2004, dated 2013).

Tested on: blood DHT
Experiment: concentration of blood DHT in mice after oral administration, measured by ELISA
Format: in vivo
Conditions: male C57BL/6 mice, oral finasteride 100 μg/mouse/day for 3 weeks, FIG. 4
Description: To confirm the inhibition effect of hardy kiwi extract on the concentration of blood DHT, the water extract and ethanol extract of fruit of Actinidia arguta were administrated into mice and the concentration of blood DHT were determined by following procedure;
Male C57BL/6 mice, aged 6 weeks (Seoul national university animal experimental center) were acclimated to the environment for 1 week. After 1 week, 16 mice were divided into 4 groups and each group was orally administered with 100 μl of the water extract of fruit of Actinidia arguta (1500 μg/mouse/day), 100 μl of the ethanol extract of fruit of Actinidia arguta (1500 μg/mouse/day), 100 μl of finasteride (100 μg/mouse/day), and 100 μl of drinking water (100 μg/mouse/day) for 3 weeks, respectively. After mice were sacrificed and the blood serum and spleen organ were colllected therefrom, the concentration of blood DHT was measured by ELISA (IBL-Hamburg GmbH) method. […]
After 1 week, 8 mice were divided into 2 groups and each group was orally administered with 100 μl of the water extract of dried stem of A. arguta (1500 μg/mouse/day) and 100 μl of drinking water (100 μg/mouse/day) for 3 weeks, respectively. After mice were sacrificed and the blood serum and spleen organ was colllected therefrom, the concentration of blood DHT was measured.

CC(C)(C)NC(=O)[C@H]1CC[C@H]2[C@@H]3CC[C@H]4NC(=O)C=C[C@]4(C)[C@H]3CC[C@]12C [finasteride]
decrease of concentration of blood DHT: about 90%
